Read-outs that look alike come from different tables or passages of the source.
Experiments:
[1] = cited from earlier work; for Duration of action: in vivo
Jurkat cells = assay: FACS GFP expression of transduced Jurkat cells treated with DMSO, 2 μM or 50 μM TMP; format: cell-based; details: 2 μM TMP or 50 μM TMP, 24 hours
Method: Clones selected from the final library after 4 rounds of sorting were cloned into pLVX.AcGFP.P2A.mcherry constructs and transduced into Jurkat cells for further characterization of DD activity. Transduced Jurkat cells were plated using 500,000 cells per well (1 ml total volume per well in 24 well plate) in duplicate for each condition. Cells were treated with DMSO (control), 2 μM TMP or 50 μM trimethoprim (TMP) for 24 hours prior to fluorescent activated cell sorting (FACS). Cells were characterized by FACS to determine their levels of GFP in the presence and absence of TMP.

| Compound | Duration of action [1] [h] | Cmax ([1]; IV) [µM] | Cmax ([1]; PO) [µM] | GFP expression upon addition of TMP (Jurkat cells) |
| --- | --- | --- | --- | --- |
| CN(Cc1cnc2nc(N)nc(N)c2n1)c1ccc(C(=O)N[C@@H](CCC(=O)O)C(=O)O)cc1 [Methotrexate] | >12 | – | – | – |
| COc1cc(Cc2cnc(N)nc2N)cc(OC)c1OC [Trimethoprim] | 2 to 72 | 25 | 1 | – |
| hDHFR-045: hDHFR (Y122I) library clone cloned into pLVX.AcGFP.P2A.mcherry construct | – | – | – | higher levels of GFP expression upon addition of TMP |
| hDHFR-046: hDHFR (Y122I) library clone cloned into pLVX.AcGFP.P2A.mcherry construct | – | – | – | higher levels of GFP expression upon addition of TMP |
